Results taken from patent publication US20240018121A1, “NOVEL HETEROAROMATIC COMPOUNDS EXHIBITING ANTIFUNGAL ACTIVITY AND THEIR METHOD OF USE” (FOX CHASE CHEMCIAL DIVERSITY CENTER, INC., priority 2020, published 2024).
≈ marks a conversion by molar mass, not a printed value.

Columns and labels:
Type in all cases: cell-based
[1] = test system: Aspergillus flavus AFL1 (ATCC MYA-3631); assay: Fungal MIC Protocol, Aspergillus flavus; conditions: Aspergillus flavus; 100% growth inhibition at 48 hours; read-out: MIC Aspergillus flavus 3631
Summary of the method: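 Aspergillus flavus spores were grown on Potato Dextrose Agar at 35° C. for 3-5 days, harvested in PBS pH 7.4+0.1% Tween-20 with glass beads, and diluted in RPMI/MOPS to an OD530 of 0.002 (about 2×10^4 cfu/mL). 50 ul of spores were combined with 50 μl of serially diluted compound in 96-well round bottom plates and incubated at 35° C. for 48 hours.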

[2] = test system: Fusarium solani (ATCC 58877); assay: Fungal MIC Protocol, Fusarium solani; conditions: Fusarium solani, ATCC58877; 100% growth inhibition at 48 hours; read-out: MIC Fusarium solani 58877
Summary of the method: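 Fusarium solani spores were grown on Potato Dextrose Agar in tissue culture flasks at 35° C. for 3-5 days, harvested with PBS pH 7.4+0.1% Tween-20 and glass beads, and diluted in RPMI/MOPS to an OD530 of 0.005 (about 2×10^4 cfu/mL). Equal 50 ul volumes of spores and serially diluted compound were combined in 96-well round bottom plates and incubated 48 hours at 35° C.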

[3] = test system: Candida albicans GDH2346; assay: Candida Minimal Inhibitory Concentration (MIC); conditions: Candida albicans, GDH2346; 50% growth inhibition at 48 hours; read-out: MIC-50 Candida albicans GDH2346
Experimental: Candida Minimal Inhibitory Concentration (MIC): RPMI/MOPS media is prepared by dissolving 8.4 g RPMI 1640, 34.52 g MOPS buffer and 2 g glucose in 900 mL water. The pH is adjusted to 7.0 with NaOH. The total volume is brought to 1 L and the resulting solution is filter sterilized. The Candida stock is streaked on a Yeast extract Peptone Dextrose (YPD) agar plate and grown at 35° C. for isolation of single colonies. Compounds of the disclosure are diluted to 200 μg/mL in RPMI/MOPS (4.8 ul of 10 mg/mL DMSO stock in 240 ul media). Ten (10) 1:2 serial dilutions are prepared in RPMI/MOPS in a 96-well round bottom plate. Fifty (50) μl of compound dilutions are transferred in duplicate to a sterile tissue culture-treated 96-well flat-bottom, black-sided polypropylene plate. A single colony of Candida from the YPD plate is re-suspended in 5 mL phosphate buffered saline (BS) and optical density (OD) at 600 nm is measured. The suspension is adjusted to OD=1.0 and a 1:1000 dilution is prepared in RPMI/MOPS. Fifty (50) ul aliquots of the diluted yeast are added to the plates containing 50 μL of compound to all wells except 12E-H. Control wells include: 12 A-D cells, no compound and 12 E-H no cells, no compound. The plates are mixed gently by hand and placed in Ziplok bags in a 35° C. incubator. The OD600 is measured at 24 and 48 hours.

[4] = test system: Fusarium falciforme FS1 (ATCC MYA-3636); assay: Fungal MIC Protocol, Fusarium falciforme; conditions: Fusarium falciforme; 100% growth inhibition at 48 hours; read-out: MIC Fusarium falciforme 3636
Summary of the method: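 Fusarium falciforme spores were raised on Potato Dextrose Agar at 35° C. for 3-5 days, collected in PBS pH 7.4+0.1% Tween-20 with glass beads, and diluted in RPMI/MOPS pH 7.0 to OD530 0.005 (about 2×10^4 cfu/mL). 50 ul spores were added to 50 μl duplicate serial compound dilutions in round bottom 96-well plates and incubated at 35° C. for 48 hours.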

[5] = test system: Mucor ramosissimus 057718 (ATCC 90286); assay: Fungal MIC Protocol, Mucor ramosissimus (MIC-50); conditions: Mucor ramosissimus, ATCC90286; 50% growth inhibition at 48 hours; read-out: MIC-50 Mucorales ramosissimus 90286
Summary of the method: (§1)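 Harvested spores, adjusted by OD530 to about 2×10^4 cfu/mL in RPMI/MOPS pH 7.0, are mixed with ten duplicate serial dilutions of compound. Incubation runs 48 h at 35° C before visual scoring of the lowest concentration inhibiting growth >50%.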

[6] = test system: Aspergillus fumigatus T33439 (ATCC MYA-3626); assay: Fungal MIC Protocol, Aspergillus fumigatus; conditions: Aspergillus fumigatus; 100% growth inhibition at 48 hours; read-out: MIC Aspergillus fumigatus 3626
Summary of the method: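 Aspergillus fumigatus was grown on Potato Dextrose Agar at 35° C. for 3-5 days, and spores were collected with PBS pH 7.4+0.1% Tween-20 plus glass beads. Spores were diluted in RPMI/MOPS to OD530 0.002 (about 2×10^4 cfu/mL). 50 ul was added to 50 μl of serially diluted compound in round bottom 96-well plates, run in duplicate, and incubated at 35° C. for 48 hours.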

[7] = test system: Mucor circinelloides 1463(62) (ATCC 26759); assay: Fungal MIC Protocol, Mucor circinelloides (MIC-50); conditions: Mucor circinelloides, ATCC26759; 50% growth inhibition at 48 hours; read-out: MIC-50 Mucorales circinelloides 26579
Summary of the method: as §1

| SMILES | MIC [1] | MIC [2] | MIC50 [3] | MIC [4] | MIC50 [5] | MIC [6] | MIC50 [7] |
| --- | --- | --- | --- | --- | --- | --- | --- |
| N=C(N)NCCn1c(-c2ccc(C3=CCN(C(=N)N)CC3)cc2F)nnc1-c1ccc(C2=CCN(C(=N)N)CC2)cc1F [Example 16, 4,4′-(4,4′-(4-(2-guanidinoethyl)-4H-1,2,4-triazole-3,5-diyl)bis(3-fluoro-4,1-phenylene))bis(5,6-dihydropyridine-1(2H)-carboximidamide)] | 0.39 µg/mL (≈ 0.663 µM) | < 0.1 µg/mL | 0.39 µg/mL (≈ 0.663 µM) | < 0.1 µg/mL | > 100 µg/mL | 0.39 µg/mL (≈ 0.663 µM) | 12.5 µg/mL (≈ 21.2 µM) |
| N=C(N)N1CC=C(c2ccc(-c3nnc(-c4ccc(C5=CCN(C(=N)N)CC5)cc4F)n3C3CC3)c(F)c2)CC1 [Example 17, 4,4′-(4,4′-(4-Cyclopropyl-4H-1,2,4-triazole-3,5-diyl)bis(3-fluoro-4,1-phenylene))bis(5,6-dihydropyridine-1(2H)-carboximidamide)] | 0.39 µg/mL (≈ 0.717 µM) | 0.39 µg/mL (≈ 0.717 µM) | 3.13 µg/mL (≈ 5.76 µM) | < 0.1 µg/mL | 0.78 µg/mL (≈ 1.43 µM) | < 0.1 µg/mL | 0.39 µg/mL (≈ 0.717 µM) |
| Cn1c(-c2ccc(C3=CCN(C(=N)N)CC3)c(F)c2)nnc1-c1ccc(C2=CCN(C(=N)N)CC2)c(F)c1 [Example 19, 4,4′-(4,4-(4-Methyl-4H-1,2,4-triazole-3,5-diyl)bis(2-fluoro-4,1-phenylene)) bis(5,6-dihydropyridine-1(2H)-carboximidamide)] | 0.03 µg/mL (≈ 0.058 µM) | 0.03 µg/mL (≈ 0.058 µM) | 0.1 µg/mL (≈ 0.193 µM) | 0.01 µg/mL (≈ 0.0193 µM) | 0.2 µg/mL (≈ 0.386 µM) | 0.01 µg/mL (≈ 0.0193 µM) | 0.1 µg/mL (≈ 0.193 µM) |
| Cn1c(-c2cc(F)c(C3=CCN(C(=N)N)CC3)cc2F)nnc1-c1cc(F)c(C2=CCN(C(=N)N)CC2)cc1F [Example 20, 4,4′-(4,4′-(4-Methyl-4H-1,2,4-triazole-3,5-diyl)bis(2,5-difluoro-4,1-phenylene))bis(5,6-dihydropyridine-1(2H)-carboximidamide)] | 0.2 µg/mL (≈ 0.361 µM) | 0.2 µg/mL (≈ 0.361 µM) | 0.78 µg/mL (≈ 1.41 µM) | < 0.1 µg/mL | 12.5 µg/mL (≈ 22.6 µM) | < 0.1 µg/mL | 0.78 µg/mL (≈ 1.41 µM) |
| Cc1cc(C2=CCN(C(=N)N)CC2)ccc1-c1nnc(-c2ccc(C3=CCN(C(=N)N)CC3)cc2)n1C [Example 21, 4-(4-(5-(4-(1-Carbamimidoyl-1,2,3,6-tetrahydropyridin-4-yl)-2-methylphenyl)-4-methyl-4H-1,2,4-triazol-3-yl)phenyl)-5,6-dihydropyridine-1(2H)-carboximidamide] | 0.39 µg/mL (≈ 0.787 µM) | 0.2 µg/mL (≈ 0.404 µM) | 0.3 µg/mL (≈ 0.605 µM) | 0.2 µg/mL (≈ 0.404 µM) | 6.25 µg/mL (≈ 12.6 µM) | 0.2 µg/mL (≈ 0.404 µM) | 3.13 µg/mL (≈ 6.32 µM) |
| Cc1cc(C2=CCN(C(=N)N)CC2)ccc1-c1nnc(-c2ccc(C3=CCN(C(=N)N)CC3)cc2C)n1C [Example 22, 4,4′-(4,4′-(4-Methyl-4H-1,2,4-triazole-3,5-diyl)bis(3-methyl-4,1-phenylene))bis(5,6-dihydropyridine-1(2H)-carboximidamide)] | 0.39 µg/mL (≈ 0.765 µM) | 0.2 µg/mL (≈ 0.392 µM) | 0.16 µg/mL (≈ 0.314 µM) | 0.78 µg/mL (≈ 1.53 µM) | 6.25 µg/mL (≈ 12.3 µM) | 0.78 µg/mL (≈ 1.53 µM) | 1.56 µg/mL (≈ 3.06 µM) |
| CNc1cc(C2=CCN(C(=N)N)CC2)cc(F)c1-c1nnc(-c2ccc(C3=CCN(C(=N)N)CC3)cc2)n1C [Example 23, 4-(4-(5-(4-(1-Carbamimidoyl-1,2,3,6-tetrahydropyridin-4-yl)-2-fluoro-6-(methylamino)phenyl)-4-methyl-4H-1,2,4-triazol-3-yl)phenyl)-5,6-dihydropyridine-1(2H)-carboximidamide] | 0.78 µg/mL (≈ 1.48 µM) | 0.2 µg/mL (≈ 0.378 µM) | 0.39 µg/mL (≈ 0.738 µM) | 0.39 µg/mL (≈ 0.738 µM) | 1.56 µg/mL (≈ 2.95 µM) | 0.39 µg/mL (≈ 0.738 µM) | 0.39 µg/mL (≈ 0.738 µM) |
| Cc1cc(-c2nnc(-c3ccc(C4=CCN(C(=N)N)CC4)c(C)c3)n2C)ccc1C1=CCN(C(=N)N)CC1 [Example 24, 4,4′-(4,4′-(4-Methyl-4H-1,2,4-triazole-3,5-diyl)bis(2-methyl-4,1-phenylene)) bis(5,6-dihydropyridine-1(2H)-carboximidamide)] | 1.56 µg/mL (≈ 3.06 µM) | 0.78 µg/mL (≈ 1.53 µM) | 1.56 µg/mL (≈ 3.06 µM) | 0.78 µg/mL (≈ 1.53 µM) | 50 µg/mL (≈ 98.1 µM) | 0.78 µg/mL (≈ 1.53 µM) | 6.25 µg/mL (≈ 12.3 µM) |
